According to patent US8927500B2, “Peptidomimetic macrocycles” (Aileron Therapeutics, Inc., priority 2012, dated 2015):
Like-named read-outs stand apart in the source and are kept apart here. Where a SMILES comes first, the peptide text is derived from it. Bridges are numbered along the chain shown (N, C = ends). [ ]: non-standard residue; d: D form. 2Nal = N[C@@H](Cc1ccc2ccccc2c1)C(=O)O; R8 = C=CCCCCCC[C@@](C)(N)C(=O)O; Cba = N[C@@H](CC1CCC1)C(=O)O; S5 = C=CCCC[C@](C)(N)C(=O)O

Assays:
Caspase 3 = Caspase 3 detection assay in SJSA1 cells; format: cell-based; settings: 48 h, Caspase 3 activation over DMSO-treated cells; for caspase 0.3 uM: 0.3 uM peptide; for caspase 1 uM: 1 uM peptide; for caspase 3 uM: 3 uM peptide; for caspase 10 uM: 10 uM peptide; for caspase 30 uM: 30 uM peptide
MDMX = molecular target: T1, MDMX (Homo sapiens, UniProt O15151); assay: Competitive fluorescence polarization assay for MDMX; format: binding; settings: competitive FP assay
T1 sequence (O15151 1-125): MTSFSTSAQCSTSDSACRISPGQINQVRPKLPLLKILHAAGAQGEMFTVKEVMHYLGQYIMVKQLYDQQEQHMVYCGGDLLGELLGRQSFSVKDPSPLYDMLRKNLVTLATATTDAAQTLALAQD

SJSA-1 cells = assay: Cell lysis by peptidomimetic macrocycles (LDH release); format: cell-based; settings: 1 h at 37C
Method: On the day of the assay, media was exchanged with RPMI 1% FBS media, 90 uL of media per well.
10 mM stock solutions of the peptidomimetic macrocycles were prepared in 100% DMSO.
The negative control (non-lytic) sample was 0.5% DMSO alone and positive control (lytic) samples include 10 uM Melittin and 1% Triton X-100.
Cell plates were incubated for 1 hour at 37C. After the 1 hour incubation, the morphology of the cells is examined by microscope and then the plates were centrifuged at 1200 rpm for 5 minutes at room temperature. 40 uL of supernatant for each peptidomimetic macrocycle and control sample is transferred to clear assay plates.

MDM2 = MDM2 (Homo sapiens, UniProt Q00987); assay: Competitive fluorescence polarization assay for MDM2; format: binding; settings: competitive FP assay, MDM2
Chain of MDM2 (Q00987 1-125): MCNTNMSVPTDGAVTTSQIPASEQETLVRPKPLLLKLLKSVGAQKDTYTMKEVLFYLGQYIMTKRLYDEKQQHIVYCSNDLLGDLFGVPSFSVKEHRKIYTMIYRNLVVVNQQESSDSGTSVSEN

| IC50 (MDMX; read-out: IC50 (MDMX)) [nM] | Ki (MDMX; read-out: Ki (MDMX)) [nM] | IC50 (MDM2; read-out: IC50 (MDM2)) [nM] | Ki (MDM2; read-out: Ki (MDM2)) [nM] | SMILES | caspase 0.3 uM (Caspase 3) | caspase 1 uM (Caspase 3) | caspase 3 uM (Caspase 3) | caspase 10 uM (Caspase 3) | caspase 30 uM (Caspase 3) | 6.25 uM % Lysed cells (1 h LDH) (SJSA-1 cells) [%] | 25 uM % Lysed cells (1 h LDH) (SJSA-1 cells) [%] | 50 uM % Lysed cells (1 h LDH) (SJSA-1 cells) [%] | IC50 (MDMX; IC50 (MDMX)) [nM] | Ki (MDMX; Ki (MDMX)) [nM] | IC50 (MDM2; IC50 (MDM2)) [nM] | Ki (MDM2; Ki (MDM2)) [nM] |
| --- | --- | --- | --- | --- | --- | --- | --- | --- | --- | --- | --- | --- | --- | --- | --- | --- |
| 100 to 1000 | 10 to 100 |  |  | CC(=O)N[C@@H](CC(C)C)C(=O)N[C@H](C(=O)N[C@@H](Cc1ccccc1)C(=O)N[C@]1(C)CCCCCCC=CCCC[C@@](C)(C(=O)N[C@@H](CO)C(=O)N[C@@H](C)C(=O)N[C@@H](C)C(N)=O)NC(=O)[C@H](CC2CCC2)NC(=O)[C@H](CCC(N)=O)NC(=O)[C@H](C)NC(=O)[C@H](Cc2ccc3ccccc3c2)NC(=O)[C@H](Cc2ccc(O)cc2)NC(=O)[C@H](CCC(=O)O)NC1=O)[C@@H](C)O [compound 254] (Ac-LTF[R8]EY[2Nal]AQ[Cba][S5]SAA-NH2; staple 4-11) | 1 | 3 | 7 | 14 | 22 | 11 | 60 | 75 |  |  |  |  |
| 100 to 1000 | 10 to 100 | < 10 | < 10 | CC(=O)N[C@@H](CC(C)C)C(=O)N[C@H](C(=O)N[C@@H](Cc1ccccc1)C(=O)N[C@]1(C)CCCCCCC=CCCC[C@@](C)(C(=O)N[C@@H](CO)C(=O)N[C@@H](CC(C)C)C(=O)N[C@@H](C)C(N)=O)NC(=O)[C@H](CC(C)C)NC(=O)[C@H](CCC(N)=O)NC(=O)[C@H](C)NC(=O)[C@H](Cc2c[nH]c3ccccc23)NC(=O)[C@H](Cc2ccc(O)cc2)NC(=O)[C@H](C)NC1=O)[C@@H](C)O (single isomer, unassigned) [compound 118] | 1 |  | 2 | 18 | 27 | 4 | 2 | 4 |  |  |  |  |
| 100 to 1000 | 10 to 100 | < 10 | < 10 | CC(=O)N[C@@H](CCC(=O)O)C(=O)N[C@H](C(=O)N[C@@H](Cc1ccccc1)C(=O)N[C@]1(C)CCCCCCC=CCCC[C@@](C)(C(=O)N[C@@H](CO)C(=O)N[C@@H](C)C(=O)N[C@@H](C)C(N)=O)NC(=O)[C@H](CC(C)C)NC(=O)[C@H](CCC(N)=O)NC(=O)[C@H](C)NC(=O)[C@H](Cc2c[nH]c3ccccc23)NC(=O)[C@H](Cc2ccc(O)cc2)NC(=O)[C@H](C(C)C)NC1=O)[C@@H](C)O [compound 125] (Ac-ETF[R8]VYWAQL[S5]SAA-NH2; staple 4-11) | 1 |  | 3 | 9 | 29 | 0 | 0 | 2 |  |  |  |  |
| 100 to 1000 | 10 to 100 | 10 to 100 | < 10 | CC(=O)N[C@@H](CC(C)C)C(=O)N[C@H](C(=O)N[C@@H](Cc1ccccc1)C(=O)N[C@]1(C)CCCCCCC=CCCC[C@@](C)(C(=O)N[C@@H](CO)C(=O)N[C@@H](C)C(=O)N[C@@H](C)C(N)=O)NC(=O)[C@H](CC(C)C)NC(=O)[C@H](C)NC(=O)[C@H](C(C)C)NC(=O)[C@H](Cc2c[nH]c3ccccc23)NC(=O)[C@H](Cc2ccc(O)cc2)NC(=O)[C@H](C)NC1=O)[C@@H](C)O [compound 196] (Ac-LTF[R8]AYWVAL[S5]SAA-NH2; staple 4-11) | 1 |  | 4 | 33 | 26 | 0 | 0 | 3 |  |  |  |  |
|  |  |  |  | CC(=O)N[C@@H](CC(C)C)C(=O)N[C@H](C(=O)N[C@@H](Cc1ccccc1)C(=O)N[C@]1(C)CCCCCCC=CCCC[C@@](C)(C(=O)N[C@@H](C)C(=O)N[C@@H](C)C(=O)N[C@@H](C)C(=O)N[C@@H](C)C(=O)N[C@@H](C)C(=O)N[C@@H](C)C(=O)N[C@H](C)C(N)=O)NC(=O)[C@H](CC(C)C)NC(=O)[C@H](CCC(N)=O)NC(=O)[C@H](C)NC(=O)[C@H](Cc2c[nH]c3ccccc23)NC(=O)[C@H](Cc2ccc(O)cc2)NC(=O)[C@H](CCC(=O)O)NC1=O)[C@@H](C)O (single isomer, unassigned) [compound 343] | 1 | 1 | 2 | 5 | 29 | 0 | 0 | 0 | 10 to 100 | < 10 | 10 to 100 | < 10 |
| 100 to 1000 | 10 to 100 | < 10 | < 10 | CC(=O)N[C@@H](CC(C)C)C(=O)N[C@H](C(=O)N[C@@H](Cc1ccccc1)C(=O)N[C@]1(C)CCCCCCC=CCCC[C@@](C)(C(=O)N[C@@H](CO)C(=O)N[C@H](C(=O)NCC(N)=O)C(C)C)NC(=O)[C@H](CC(C)C)NC(=O)[C@H](CCC(N)=O)NC(=O)[C@H](C)NC(=O)[C@H](Cc2c[nH]c3ccccc23)NC(=O)[C@H](Cc2ccc(O)cc2)NC(=O)[C@H](C)NC1=O)[C@@H](C)O [compound 123] (Ac-LTF[R8]AYWAQL[S5]SVG-NH2; staple 4-11) | 1 |  | 1 | 6 | 14 | −2 | 5 | 3 |  |  |  |  |
|  |  |  |  | CC(=O)N[C@@H](CC(C)C)C(=O)N[C@H](C(=O)N[C@@H](Cc1ccccc1)C(=O)N[C@]1(C)CCCCCCC=CCCC[C@@](C)(C(=O)N[C@@H](C)C(=O)N[C@@H](C)C(=O)N[C@@H](C)C(=O)N[C@@H](C)C(=O)N[C@@H](C)C(=O)N[C@@H](C)C(=O)N[C@H](C)C(N)=O)NC(=O)[C@H](CC(C)C)NC(=O)[C@H](CCC(N)=O)NC(=O)[C@H](C)NC(=O)[C@H](Cc2c[nH]c3ccccc23)NC(=O)[C@H](Cc2ccc(O)cc2)NC(=O)[C@H](C)NC1=O)[C@@H](C)O (single isomer, unassigned) [compound 316] | 6.5 | 10.5 | 21 | 32 | 32.5 | 0 | 0 | 1 |  |  | < 10 | < 10 |
|  |  |  |  | CC(=O)N[C@@H](CC(C)C)C(=O)N[C@H](C(=O)N[C@@H](Cc1ccccc1)C(=O)N[C@]1(C)CCCCCCC=CCCC[C@@](C)(C(=O)N[C@@H](C)C(=O)N[C@@H](C)C(=O)N[C@@H](C)C(=O)N[C@@H](C)C(=O)N[C@@H](C)C(=O)N[C@@H](C)C(=O)N[C@H](C)C(N)=O)NC(=O)[C@H](CC(C)C)NC(=O)[C@H](CCC(N)=O)NC(=O)[C@H](C)NC(=O)[C@H](Cc2c[nH]c3ccccc23)NC(=O)[C@H](Cc2ccc(O)cc2)NC(=O)[C@H](C)NC1=O)[C@@H](C)O (single isomer, unassigned) [compound 317] | 3 | 4 | 9 | 26 | 35 | 0 | 0 | 0 |  |  | 10 to 100 | 10 to 100 |
| 100 to 1000 | 10 to 100 |  |  | CC(=O)N[C@@H](CC(C)C)C(=O)N[C@H](C(=O)N[C@@H](Cc1ccccc1)C(=O)N[C@]1(C)CCCCCCC=CCCC[C@@](C)(C(=O)N[C@@H](CO)C(=O)N[C@@H](C)C(=O)N[C@@H](C)C(N)=O)NC(=O)[C@H](CC2CCCCC2)NC(=O)[C@H](CCC(N)=O)NC(=O)[C@H](C)NC(=O)[C@H](Cc2c[nH]c3ccccc23)NC(=O)[C@H](Cc2ccc(O)cc2)NC(=O)[C@H](CCC(=O)O)NC1=O)[C@@H](C)O (single isomer, unassigned) [compound 148] | 1 |  | 11 | 23 | 31 | 0 | −1 | 0 |  |  |  |  |
| 10 to 100 | < 10 |  |  | CC(=O)N[C@@H](CC(C)C)C(=O)N[C@H](C(=O)N[C@@H](Cc1ccccc1)C(=O)N[C@]1(C)CCCCCCC=CCCC[C@@](C)(C(=O)N[C@@H](CO)C(=O)N[C@@H](C)C(=O)N[C@@H](C)C(=O)N[C@H](C)C(N)=O)NC(=O)[C@H](CC2CCC2)NC(=O)[C@H](CCC(N)=O)NC(=O)[C@H](C)NC(=O)[C@H](Cc2c[nH]c3ccccc23)NC(=O)[C@H](Cc2ccc(O)cc2)NC(=O)[C@H](CCC(=O)O)NC1=O)[C@@H](C)O (single isomer, unassigned) [compound 353] | 1 | 2 | 5 | 7 | 30 | 0 | 0 | 0 |  |  |  |  |
